In PMC7238036, “An Interspecies Molecular and Functional Study of Organic Cation Transporters at the Blood-Brain Barrier: From Rodents to Humans” (Pharmaceutics, 2020):

Legend:
[1] = test system: primary human brain microvascular endothelial cells (BMVECs)
Procedure: BMVECs were obtained from isolated human brain microvessels and cultured in petri dishes in the presence of puromycin (P0), to avoid contamination from other cell types. BMVECs were later used in astrocyte-conditioned culture media for protein extraction, or for the establishment of a human BBB model to conduct permeability assays.
After BMVECs amplification, cells were seeded on inserts (Transwell, Corning, ThermoFisher, Les Ulis, France). […] Permeability studies using radiolabeled [^3H]-L-Phenylalanine (~4 nM) or [^3H]-MPP^+ (~6 nM) were performed on BMVECs once the establishment of a good BBB model was verified.

[2] = test system: OCT1 and/or OCT2; set-up: method as in PMID 20477935; conditions: cited from earlier work
[3] = test system: BBB; conditions: cited from earlier work
[4] = test system: luminal BBB
Procedure: Transport of [^3H]-MPP^+ at the luminal BBB was measured by in situ brain perfusion in mice and rats [22, 23, 24]. […] With this method, the vascular composition of the brain is totally substituted by an artificial fluid, whose constitution can be modified. Mice and rats were anesthetized with ketamine-xylazine mixture 140–8 mg kg^−1 and 80-10 mg kg^−1, respectively. A catheter was inserted into the right carotid artery after ligation of the appropriate vessels. Just before perfusion, the heart was cut. Perfusion started immediately at a constant flow rate of 2.5 mL min^−1, and 10 mL min^−1, in mouse and rat, respectively.
The fluid pH (pHe) was checked and adjusted with a digital pH-meter (± 0.05 pH-units) immediately before perfusion. […] The perfusion was terminated by decapitating the animal after 120 s. […]
The apparent tissue distribution volume (Vtissue, µL g^−1) was calculated as (Equation (2)): (2) Vtissue=Vtissue/Cperf where Xtissue (dpm g^−1) is the calculated brain amount of [^3H]-MPP^+ and Cperf (dpm µL^−1), its concentration in the perfusion fluid (Equation (3)): (3) Xtissue=Xtot−VvCperf where Xtot (dpm g^−1) is the total quantity of [^3H]-MPP^+ measured in the sample tissue.
The initial transport rate, also called brain clearance, expressed as a Kin (µL s^−1 g^−1), was calculated from (Equation (4)): (4) Kin=Vtissue/T where T is the perfusion time (s).

N[C@@H](Cc1c[nH]c2ccccc12)C(=O)O [tryptophan]
effect of inhibitor on [3H]-L-phenylalanine uptake, apical to basolateral (SLC7A5) ([1]; tryptophan 5 mM, [3H]-L-phenylalanine ~4 nM, n = 3, p < 0.05): significant decrease

CN1CC=C(c2ccccc2)CC1 [MPTP, 1-methyl-4-phenyl-1,2,3,6-tetrahydropyridine]
share of MPTP brain uptake accounted for by OCT1 and/or OCT2 [2]: more than 90%

C[n+]1ccc(-c2ccccc2)cc1 [[^3H]-MPP^+, 1-methyl-4-phenylpyridinium]
modification of [3H]-MPP+ brain transport ([3]; FVB (wild-type, Oct1/2−/−, Oct3−/−) and Swiss mice (+/- TEA)): no modification
differences in basal [3H]-MPP+ brain transport between the selected mouse strains ([4]; 2-month old mice, six strains): not evidenced

CC[N+](CC)(CC)CC [TEA, Tetraethylammonium]
modification of [14C]-TEA brain transport ([3]; FVB Oct1−/− mice): no modification
effect of co-perfused inhibitor on [3H]-MPP+ brain extraction/clearance ([4]; TEA 30 mM co-perfusion, all rat and mouse strains tested): remained unaltered
effect of inhibitor on [3H]-MPP+ uptake, apical to basolateral ([1]; TEA 2 mM, [3H]-MPP+ ~6 nM, OCT1-3/MATE function): did not produce any significant decrease
